Converted amounts (≈) assume the structure as drawn.

Holding throughout (format): functional
One assay relates to Staphylococcus aureus. Briefly: Antimicrobial activity against Staphylococcus aureus ATCC 25923 after 24 hr by broth dilution method. Particulars: ATCC 25923, 24 h. A general note: In broth dilution the organism is exposed to a series of concentrations in liquid medium.
For the next assay, the system named is Escherichia coli. Kind of assay: Antimicrobial activity against Escherichia coli ATCC 25922 after 24 hr by broth dilution method. Particulars: ATCC 25922, 24 h.
For the next assay, the system named is Aspergillus fumigatus. Briefly: Antimicrobial activity against Aspergillus fumigatus after 24 hr by broth dilution method.
The subject of a further assay is Fusarium solani. Briefly: Antimicrobial activity against Fusarium solani ATCC 38136 after 24 hr by broth dilution method. Conditions: ATCC 38136, 24 h.
In the next assay the test system is Bacillus cereus. Briefly: Antimicrobial activity against Bacillus cereus ATCC 11778 after 24 hr by broth dilution method. Particulars: ATCC 11778, 24 h.
A further assay concerns Aspergillus awamori. Kind of assay: Antimicrobial activity against Aspergillus awamori ATCC 22342 after 24 hr by broth dilution method. Conditions: ATCC 22342, 24 h.
The next assay concerns Proteus mirabilis. Briefly: Antimicrobial activity against Proteus mirabilis ATCC 49565 after 24 hr by broth dilution method. Conditions: ATCC 49565, 24 h.
A further assay deals with Bacillus pumilus. Briefly: Antimicrobial activity against Bacillus pumilus ATCC 14884 after 24 hr by broth dilution method. Particulars: ATCC 14884, 24 h.
The test system of another assay is Staphylococcus hominis. Kind of assay: Antimicrobial activity against Staphylococcus hominis ATCC 27844 after 24 hr by broth dilution method. Conditions: ATCC 27844, 24 h.
A further assay concerns Micrococcus luteus. Kind of assay: Antimicrobial activity against Micrococcus luteus ATCC 4698 after 24 hr by broth dilution method. Particulars: ATCC 4698, 24 h.
In a further assay the test system is Microsporum canis. Briefly: Antimicrobial activity against Arthroderma otae ATCC 11622 after 24 hr by broth dilution method. Conditions: ATCC 11622, 24 h.
For another assay, the system named is Aspergillus flavus. Briefly: Antimicrobial activity against Aspergillus flavus ATCC 15517 after 24 hr by broth dilution method. Conditions: ATCC 15517, 24 h.
Assay [1] concerns Staphylococcus epidermidis. Kind of assay: Antimicrobial activity against Staphylococcus epidermidis ATCC 12228 after 24 hr by broth dilution method. Particulars: ATCC 12228, 24 h.
The next assay concerns Trichophyton longifusum. Kind of assay: Antimicrobial activity against Trichophyton longifusum ATCC 22397 after 24 hr by broth dilution method. Conditions: ATCC 22397, 24 h.
The subject of the next assay is Aspergillus niger. Kind of assay: Antimicrobial activity against Aspergillus niger ATCC 9142 after 24 hr by broth dilution method. Particulars: ATCC 9142, 24 h.
Another assay has as its system Bacillus spizizenii. Kind of assay: Antimicrobial activity against Bacillus subtilis subsp. spizizenii ATCC 6633 after 24 hr by broth dilution method. Conditions: ATCC 6633, 24 h.
Another assay concerns Proteus vulgaris. Briefly: Antimicrobial activity against Proteus vulgaris ATCC 13315 after 24 hr by broth dilution method. Particulars: ATCC 13315, 24 h.
The next assay has as its system Pseudomonas aeruginosa. Briefly: Antimicrobial activity against Pseudomonas aeruginosa ATCC 10145 after 24 hr by broth dilution method. Conditions: ATCC 10145, 24 h.
Another assay concerns Klebsiella pneumoniae. Kind of assay: Antimicrobial activity against Klebsiella pneumoniae ATCC 13883 after 24 hr by broth dilution method. Conditions: ATCC 13883, 24 h.
For a further assay, the system named is Alternaria alternata. Briefly: Antimicrobial activity against Alternaria alternata ATCC 66868 after 24 hr by broth dilution method. Conditions: ATCC 66868, 24 h.
The next assay concerns Salmonella typhi. Kind of assay: Antimicrobial activity against Salmonella enterica subsp. enterica serovar Typhi ATCC 19430 after 24 hr by broth dilution method. Conditions: ATCC 19430, 24 h.
Another assay deals with Rhizoctonia solani. Kind of assay: Antimicrobial activity against Rhizoctonia solani ATCC 76131 after 24 hr by broth dilution method. Conditions: ATCC 76131, 24 h.
Another assay deals with Candida albicans. Briefly: Antimicrobial activity against Candida albicans ATCC 10231 after 24 hr by broth dilution method. Particulars: ATCC 10231, 24 h.
In a further assay the test system is Trichoderma viride. Kind of assay: Antimicrobial activity against Hypocrea rufa ATCC 52440 after 24 hr by broth dilution method. Conditions: ATCC 52440, 24 h.

As to `COc1cccc(C2SCC(=O)N2/N=C2\C(=O)Nc3ccc(Cl)cc32)c1` (stereo unspecified), the MIC (in general, the lowest concentration that inhibits growth of the organism) turned out to be 37.5 µg/mL (≈ 96.7 µM) with Staphylococcus aureus; 75 µg/mL (≈ 193 µM) against Escherichia coli; 37.5 µg/mL (≈ 96.7 µM) against Aspergillus fumigatus; 18.8 µg/mL (≈ 48.3 µM) in the assay on Fusarium solani; 75 µg/mL (≈ 193 µM) in the assay on Bacillus cereus; 37.5 µg/mL (≈ 96.7 µM) in the assay on Aspergillus awamori. For the same molecule, the MIC against Proteus mirabilis is 37.5 µg/mL (≈ 96.7 µM); in the assay with Bacillus pumilus it was 75 µg/mL (≈ 193 µM); against Staphylococcus hominis it was 37.5 µg/mL (≈ 96.7 µM); against Micrococcus luteus, 75 µg/mL (≈ 193 µM); in the assay with Microsporum canis, 18.8 µg/mL (≈ 48.3 µM); with Aspergillus flavus, 18.8 µg/mL (≈ 48.3 µM). Also, the MIC in [1] was determined as 75 µg/mL (≈ 193 µM); in the assay on Trichophyton longifusum it was 37.5 µg/mL (≈ 96.7 µM); in the assay on Aspergillus niger, 37.5 µg/mL (≈ 96.7 µM); with Bacillus spizizenii it was 75 µg/mL (≈ 193 µM); against Proteus vulgaris, 37.5 µg/mL (≈ 96.7 µM); in the assay with Pseudomonas aeruginosa, 75 µg/mL (≈ 193 µM). In addition, the MIC against Klebsiella pneumoniae turned out to be 37.5 µg/mL (≈ 96.7 µM); against Alternaria alternata, 18.8 µg/mL (≈ 48.3 µM); in the assay with Salmonella typhi it was 75 µg/mL (≈ 193 µM); against Rhizoctonia solani it was 18.8 µg/mL (≈ 48.3 µM); against Candida albicans it was 18.8 µg/mL (≈ 48.3 µM); in the assay on Trichoderma viride it was 18.8 µg/mL (≈ 48.3 µM).

For `O=C1Nc2ccc(Cl)cc2/C1=N/N1C(=O)CSC1c1ccccc1O` (stereo unspecified), the MIC amounted to 300 µg/mL (≈ 803 µM) against Staphylococcus aureus; 300 µg/mL (≈ 803 µM) against Escherichia coli; 150 µg/mL (≈ 401 µM) with Aspergillus fumigatus; 150 µg/mL (≈ 401 µM) against Fusarium solani; 150 µg/mL (≈ 401 µM) against Bacillus cereus; 150 µg/mL (≈ 401 µM) in the assay with Aspergillus awamori. In addition, the MIC was determined as 300 µg/mL (≈ 803 µM) against Proteus mirabilis; 150 µg/mL (≈ 401 µM) with Bacillus pumilus; 150 µg/mL (≈ 401 µM) in the assay with Staphylococcus hominis; 150 µg/mL (≈ 401 µM) against Micrococcus luteus; 75 µg/mL (≈ 201 µM) in the assay with Microsporum canis; 75 µg/mL (≈ 201 µM) in the assay on Aspergillus flavus. The MIC in assay [1] was 300 µg/mL (≈ 803 µM); against Trichophyton longifusum, 150 µg/mL (≈ 401 µM); in the assay with Aspergillus niger, 150 µg/mL (≈ 401 µM); with Bacillus spizizenii it was 150 µg/mL (≈ 401 µM); against Proteus vulgaris, 150 µg/mL (≈ 401 µM); in the assay with Pseudomonas aeruginosa, 300 µg/mL (≈ 803 µM). Also, the MIC with Klebsiella pneumoniae was found to be 300 µg/mL (≈ 803 µM); against Alternaria alternata, 75 µg/mL (≈ 201 µM); against Salmonella typhi it was 150 µg/mL (≈ 401 µM); with Rhizoctonia solani it was 150 µg/mL (≈ 401 µM); with Candida albicans it was 75 µg/mL (≈ 201 µM); in the assay with Trichoderma viride, 150 µg/mL (≈ 401 µM).

`O=C1Nc2ccc(Cl)cc2/C1=N/N1C(=O)CSC1c1ccc(O)cc1` (stereo unspecified): the MIC stood at 18.8 µg/mL (≈ 50.2 µM) in the assay with Staphylococcus aureus; 18.8 µg/mL (≈ 50.2 µM) with Escherichia coli; 4.68 µg/mL (≈ 12.5 µM) in the assay on Aspergillus fumigatus; 4.68 µg/mL (≈ 12.5 µM) against Fusarium solani; 18.8 µg/mL (≈ 50.2 µM) in the assay with Bacillus cereus; 4.68 µg/mL (≈ 12.5 µM) against Aspergillus awamori. Further, the MIC against Proteus mirabilis is 18.8 µg/mL (≈ 50.2 µM); in the assay on Bacillus pumilus, 9.37 µg/mL (≈ 25.1 µM); against Staphylococcus hominis, 9.37 µg/mL (≈ 25.1 µM); in the assay on Micrococcus luteus, 18.8 µg/mL (≈ 50.2 µM); against Microsporum canis, 9.37 µg/mL (≈ 25.1 µM); with Aspergillus flavus it was 9.37 µg/mL (≈ 25.1 µM). Also, the MIC in [1] amounted to 9.37 µg/mL (≈ 25.1 µM); against Trichophyton longifusum, 4.68 µg/mL (≈ 12.5 µM); with Aspergillus niger, 4.68 µg/mL (≈ 12.5 µM); in the assay on Bacillus spizizenii it was 18.8 µg/mL (≈ 50.2 µM); with Proteus vulgaris, 9.37 µg/mL (≈ 25.1 µM); with Pseudomonas aeruginosa, 9.37 µg/mL (≈ 25.1 µM). In addition, the MIC was determined as 9.37 µg/mL (≈ 25.1 µM) with Klebsiella pneumoniae; 9.37 µg/mL (≈ 25.1 µM) against Alternaria alternata; 9.37 µg/mL (≈ 25.1 µM) in the assay with Salmonella typhi; 9.37 µg/mL (≈ 25.1 µM) against Rhizoctonia solani; 4.68 µg/mL (≈ 12.5 µM) in the assay with Candida albicans; 4.68 µg/mL (≈ 12.5 µM) in the assay on Trichoderma viride.

Turning to `CN(C)c1ccc(C2SCC(=O)N2/N=C2\C(=O)Nc3ccc(Cl)cc32)cc1` (stereo unspecified), the MIC against Staphylococcus aureus was 9.37 µg/mL (≈ 23.4 µM); against Escherichia coli it was 18.8 µg/mL (≈ 46.8 µM); with Aspergillus fumigatus, 4.68 µg/mL (≈ 11.7 µM); in the assay with Fusarium solani it was 4.68 µg/mL (≈ 11.7 µM); with Bacillus cereus it was 18.8 µg/mL (≈ 46.8 µM); in the assay with Aspergillus awamori it was 9.37 µg/mL (≈ 23.4 µM). Further, the MIC against Proteus mirabilis is 9.37 µg/mL (≈ 23.4 µM); in the assay with Bacillus pumilus it was 9.37 µg/mL (≈ 23.4 µM); with Staphylococcus hominis, 9.37 µg/mL (≈ 23.4 µM); in the assay on Micrococcus luteus, 18.8 µg/mL (≈ 46.8 µM); in the assay on Microsporum canis, 9.37 µg/mL (≈ 23.4 µM); against Aspergillus flavus, 4.68 µg/mL (≈ 11.7 µM). Moreover, the MIC is 18.8 µg/mL (≈ 46.8 µM) in assay [1]; 4.68 µg/mL (≈ 11.7 µM) in the assay with Trichophyton longifusum; 4.68 µg/mL (≈ 11.7 µM) against Aspergillus niger; 18.8 µg/mL (≈ 46.8 µM) against Bacillus spizizenii; 18.8 µg/mL (≈ 46.8 µM) against Proteus vulgaris; 18.8 µg/mL (≈ 46.8 µM) against Pseudomonas aeruginosa. Also, the MIC in the assay with Klebsiella pneumoniae stood at 18.8 µg/mL (≈ 46.8 µM); against Alternaria alternata it was 4.68 µg/mL (≈ 11.7 µM); in the assay on Salmonella typhi, 9.37 µg/mL (≈ 23.4 µM); in the assay on Rhizoctonia solani, 4.68 µg/mL (≈ 11.7 µM); against Candida albicans, 9.37 µg/mL (≈ 23.4 µM); with Trichoderma viride, 4.68 µg/mL (≈ 11.7 µM).

The record behind these values is ChEMBL document CHEMBL3046063, “Synthesis and antimicrobial activity of 5-chloroindoline-2,3-dione derivatives” (2012).
